Measured values taken from patent publication US20230022200A1, “DRUG THAT PREVENTS DIALYSIS SHIFT OR RENAL DEATH” (Toray Industries, Inc., priority 2019, published 2023).
Where two headings read alike, the source gives them in different places.

Legend:
[1] = cited from earlier work
[2] = system: chronic renal failure patients with primary glomerular disease and nephrosclerosis as primary diseases; test: CASSIOPEIR trial: time to dialysis shift or renal death, hazard ratio of drug and placebo by Cox proportional hazard model; type: in vivo, human
Description: For the analysis, the full analysis set and Intention-To-Treat (ITT) defined in Nakamoto et al., BMC Nephrology were used, and the hazard ratio (HR) of the drug and placebo was calculated by the Cox proportional hazard model. A lower HR value indicates a higher effectiveness of the drug.
A data set obtained in the CASSIOPEIR trial according to the protocol described in Nakamoto et al., BMC Nephrology was used. Summarizing the protocol of the CASSIOPEIR trial, the targets are chronic renal failure patients with primary glomerular disease and nephrosclerosis as primary diseases, and a BPS sustained-release tablet, TRK-100STP (the same preparation as Careload (trademark) LA Tablets 60 μg (Toray Industries, Inc.)), is administered at 120 μg or 240 μg as BPS per day in two divided doses, morning and evening. Further, this trial was a multicenter, randomized, placebo-controlled, double-blind comparative trial, and carried out in Japan, China, South Korea, Taiwan, Hong Kong, Malaysia, and Thailand.
The duration of drug administration was 2 to 4 years, and the number of patients underwent randomization was 892, and the trial was conducted in 160 sites. Further, the ITT population was the primary analysis target population. The primary endpoint was the time to occurrence of the renal composite endpoint defined by doubling of serum creatinine or end-stage renal disease. The guidelines (2013) of the Japanese Society for Dialysis Therapy were used as a reference to determine the time to shift to dialysis. Specifically, according to the policy that “even with adequate conservative treatment, progressive deterioration of renal function is observed, and the need arises when GFR<15 ml/min/1.73 m^2. However, the introduction of actual blood dialysis is determined by comprehensively judging the symptoms of renal failure, activity in daily life, and nutritional status, and a decision is made when these cannot be avoided except by dialysis therapy,” and finally based on the judgment of the investigator, the time to shift to dialysis and the time to reach renal death were determined. The term “dialysis” as used herein includes peritoneal dialysis, in addition to blood dialysis.

[3] = system: chronic renal failure patients with primary glomerular disease and nephrosclerosis as primary diseases; conditions: whole trial, serum creatinine 2.0 to 4.5 mg/dl at entry; 120 μg or 240 μg BPS administration group; cited from earlier work
[4] = system: chronic renal failure patients with primary glomerular disease and nephrosclerosis as primary diseases; conditions: twice a day for 6 months, cited from earlier work
[5] = system: patients with chronic renal failure; conditions: cited from earlier work
renal failure model rats = conditions: rat, in vivo; cited from earlier work
[6] = system: cats with spontaneous chronic kidney disease; conditions: in vivo; cited from earlier work
[7] = system: chronic renal failure rat models; conditions: combined use with ARBs and ACEIs; cited from earlier work

CC#CC[C@H](C)[C@H](O)/C=C/[C@@H]1[C@H]2c3cccc(CCCC(=O)[O-])c3O[C@H]2C[C@H]1O.[Na+] [BPS-314d, sodium (+)-(1R,2R,3aS,8b S)-2,3,3a,8b-tetrahydro-2-hydroxy-1-[(E)-(3S,4S)-3-hydroxy-4-methyl-1-octen-6-ynyl]-1H-cyclopenta[b]benzofuran-5-butyrate]
Cmax of BPS-314d in plasma relative to BPS ([1]; when BPS is administered to a human): ¼
AUC of BPS-314d in plasma relative to BPS ([1]; when BPS is administered): ¼

CC#CCC(C)[C@H](O)/C=C/[C@@H]1[C@H]2c3cccc(CCCC(=O)[O-])c3O[C@H]2C[C@H]1O.[Na+] (stereo partly drawn) [BPS, Beraprost sodium]
HR, time to dialysis shift ([2]; 240 μg per day, ACEI used in combination (except patients who further used ARB), all subjects, P value 0.0994): 0.60
HR, time to dialysis shift ([2]; 240 μg per day, ACEI used in combination, Japanese patients, P value 0.0882): 0.49
HR, time to dialysis shift ([2]; 240 μg, ARB in combination, no ACEI, Japanese partial population, P value 0.3597): 0.79
HR, time to dialysis shift ([2]; 240 μg, ARB in combination, no ACEI, P value 0.5401): 0.88
HR, dialysis shift ([2]; Japanese patients, BMI less than 23, 240 μg, P value 0.0048): 0.38
HR, dialysis shift ([2]; Japanese patients, BMI less than 23 and serum albumin less than 3.8 g/dl): 0.29
HR, dialysis shift ([2]; Japanese patients, serum albumin less than 3.8 g/dl, 240-μg administration, P value 0.1567): 0.50
HR, time to dialysis shift ([2]; plasma BPS 50 pg/ml or more confirmed, eGFR 15 or more and less than 45 ml/min/1.73 m^2 (CKD stages 3b and 4), P value 0.0368): 0.59
HR, time to dialysis shift ([2]; plasma BPS 50 pg/ml or more confirmed, serum creatinine less than 3 mg/dl, P value 0.0251): 0.46
renal composite endpoints and time to shift to dialysis [3]: not minimized at all
Cmax and AUC in renal damage patients compared to healthy subjects ([1]; Shimamura et al.): elevated
half-life in blood ([1]; in vivo): about 1 hour
increase in serum creatinine level during the administration period compared to before the start of administration ([4]; 120-μg group): 1.069 times
increase in serum creatinine level during the administration period compared to before the start of administration ([4]; 240-μg group): 1.064 times
slope of the time-varying straight line of the reciprocal of the serum creatinine level ([5]; 20 μg per dose three times a day for 6 months): becomes gentle
shift to dialysis ([5]; serum creatinine 1.9 mg/dl or less before start, 20 μg three times a day): did not shift to dialysis for up to 54 months
effect of BPS ([5]; serum creatinine 2.2 mg/dl or more (within the 1.9 to 2.8 mg/dl group)): not observed
time to shift to dialysis ([5]; serum creatinine 2.8 mg/dl or more before start, 20 μg three times a day): ≤ 24 months
renal tissue damage (renal failure model rats): reduces renal tissue damage
serum creatinine levels (renal failure model rats): suppresses the increase in serum creatinine levels
renal function [6]: suppresses the decline in renal function
effect of angiotensin inhibitors to suppress the progression of renal damage (increase in serum creatinine levels) [7]: enhances the effect of the angiotensin inhibitors
